Patent publication US10736934B2, “Proteasome modulation for treatment of corneal disorders” (The Lundquist Institute, priority 2015, dated 2020)

Key:
[1] = system: 26S constitutive proteasome (CPR); assay: Proteasome chymotrypsin-like activity in cultured oral mucosa epithelial cells treated with PS-341; type: cell-based, rabbit
Procedure: (§1) After two weeks of cell culture and when the cells grew to form a multilayered tissue like, proteasome inhibitor (PS-341, (Bortezomib/Velcade®, Millennium Pharmaceutical, a highly specific proteasome inhibitor) was added in cell culture media for 24 h and for 72 h at 2.5, 5, 10, 20, and 50 nM, to, respectively achieve proteasome inhibition or proteasome activation.
One μg of total protein from sample homogenates was used. The reaction mixture contained 50 mM Tris-HCl pH=8, 1 mM DTT, and 40 μM Suc-Leu-Leu-Val-Tyr-AMC (Sigma Aldrich) substrate for chymotrypsin-like activity or 40 μM of Boc-Leu-Ser-Thr-Arg-AMC for trypsin-like activity or 100 uM of Ac-Gly-Pro-Leu-Asp-AMC (Sigma Aldrich) for Caspase-like activity. 5 mM ATP was added to the reaction mixture to distinguish 26S proteasome activity from 20S proteasome activity. The mixture was then incubated for 30 min at 37° C., and then stopped by adding […] monochloroacetate and 30 mM sodium acetate pH=4.3. Fluorescence was determined by measuring the release of AMC (λ, excitation: 370 nm, λ, emission: 410 nm), using a Perkin Elmer LS 30 spectrofluorometer.

[2] = system: Keratin 13 (K13); assay: Western blot of K13 in PS-341-treated oral mucosa epithelial cells; type: cell-based, rabbit; conditions: OMECS
Procedure: as §1

[3] = system: Keratin 4 (K4); assay: Western blot of K4 in PS-341-treated oral mucosa epithelial cells; type: cell-based, rabbit; conditions: OMECS
Procedure: as §1

[4] = system: poly-ubiquitinated proteins; assay: Western blot of poly-ubiquitinated proteins in PS-341-treated oral mucosa epithelial cells; type: cell-based, rabbit; conditions: 2.5 nM PS-341, 72 h
Procedure: as §1

[5] = system: oral mucosa epithelial cells (OMECS); assay: Toxicity of low-dose PS-341 in oral mucosa epithelial cells; type: cell-based, rabbit; conditions: 2.5 nM PS-341 (very low dose), 72 h
Procedure: as §1

[6] = system: IκB / NFκB; assay: IκB / NFκB activation in PS-341-treated oral mucosa epithelial cells
[7] = high doses 10 and 50 nM, 24 hours

CC(C)C[C@H](NC(=O)[C@H](Cc1ccccc1)NC(=O)c1cnccn1)B(O)O [PS-341, Bortezomib]
CPR chymotrypsin-like activity decrease ([1]; 2.5 nM PS-341, 24 h, oral mucosa epithelial cells): 9%
increase in proteasome chymotrypsin-like activity versus untreated cells ([1]; 2.5 nM PS-341, 72 hours, oral mucosa epithelial cells): 61%
CPR chymotrypsin-like activity decrease ([1]; 5 nM PS-341, 24 h, oral mucosa epithelial cells): −41%
proteasome activities at 72 hours ([1]; 5 nM PS-341, 72 hours, oral mucosa epithelial cells): increased proteasome activities
CPR chymotrypsin-like activity decrease ([1]; 10 nM PS-341, 24 h, oral mucosa epithelial cells): −59%
proteasome activities at 72 hours ([1]; 10 nM PS-341, 72 hours, oral mucosa epithelial cells): increased proteasome activities
CPR chymotrypsin-like activity decrease ([1]; 20 nM PS-341, 24 h, oral mucosa epithelial cells): −84%
CPR chymotrypsin-like activity decrease ([1]; 50 nM PS-341, 24 h, oral mucosa epithelial cells): −86%
Chymotrypsine-like proteasome activity ([1]; high doses 10 and 50 nM, 24 hours, OMECS): decreased
K13 levels ([2]; 2.5 nM PS-341, 72 hours): decreased
K13 level [2, 7]: modified and significantly accumulated
K4 levels ([3]; 2.5 nM PS-341, 72 hours): decreased
K4 level [3, 7]: modified and significantly accumulated
poly-ubiquitinated protein accumulation [4]: no significant poly-ubiquitinated protein accumulation
toxic effects [5]: does not produce toxic effects
levels of expression of Inhibitor Kappa B ([6]; 2.5 nM PS-341, 72 hours after treatment, OMECS): decreased
NFκB activation ([6]; 2.5 nM PS-341, OMECS): blocked NFκB activation
IκB ([6]; 2.5 nM PS-341, first 24 hours, OMECS): stabilizing IκB
